In patent US8507506B2, “Theophylline derivative inhibits osteoporosis” (Kaohsiung Medical University, priority 2011, dated 2013):
Marks after values point to notes of the source that are not given here.

How the values were obtained:
Format in all cases: cell-based
[1] = system: Akt phosphorylation in RAW264.7 cells; assay: Western blot, phosphorylation of Akt induced by RANKL; details: 10 ng/ml RANKL for 30 minutes, dose dependent, FIG. 17
Description: RANKL can activate PI3K/Akt pathway to maintain the existence and the proliferation of osteoclast-like cells and prevent the apoptosis. The Akt phosphorylation level which is induced by RANKL is examined at different time points. The induced Akt phosphorylation is most apparent when it is induced by 10 ng/ml RANKL for 30 minutes. Therefore, 30 minutes are used to be the time point for inducing Akt phosphoryaltion. […] The proteins were collected by scraping and were centrifuged (13,000 rpm, 4° C., 30 minutes). The supernatant was stored in an eppendorf in −80° C. • c) Concentrations of the proteins were examined by Bio-Red DC Protein Assay. After knowing the concentrations, the proteins were diluted to specific concentrations by adding ddH2O. One forth volume of the diluted proteins of sample buffer was added into the diluted proteins and was put in boiled water for 5 min and then was chilled on ice for 5 minutes. After short time centrifugation, the diluted proteins could be injected into wells of a gel. The gel was run at 100 V for 10 minutes until the proteins were driven to the intersection between a loading gel and a running gel. Then, the voltage was swopped to 200 V for 40 minutes. • d) A PVDF membrane was immersed in Methanol for 2 minutes. After two washes in ddH2O, the membrane was immersed in transfer buffer for 15 minutes. […]

[2] = system: MMP-9 mRNA in RAW264.7 cells; assay: RT-PCR, RANKL-induced mRNA expression of MMP-9; details: for RANKL-induced mRNA expression level of MMP-9: RAW264.7 cells, 24 hours, CTL 100%, mean ± SEM
Excerpt: (§1) The culture medium was discarded. […] [table] f) Running • A.

[3] = system: c-Fos protein in RAW264.7 cells; assay: Western blot, expression of c-Fos induced by RANKL; details: 7.5 μM and 10 μM, RANKL 24 hours, FIG. 12
Description: The proteins were collected by scraping and were centrifuged (13,000 rpm, 4° C., 30 minutes). The supernatant was stored in an eppendorf in −80° C. • c) Concentrations of the proteins were examined by Bio-Red DC Protein Assay. After knowing the concentrations, the proteins were diluted to specific concentrations by adding ddH2O. One forth volume of the diluted proteins of sample buffer was added into the diluted proteins and was put in boiled water for 5 min and then was chilled on ice for 5 minutes. After short time centrifugation, the diluted proteins could be injected into wells of a gel. The gel was run at 100 V for 10 minutes until the proteins were driven to the intersection between a loading gel and a running gel. Then, the voltage was swopped to 200 V for 40 minutes. • d) A PVDF membrane was immersed in Methanol for 2 minutes. After two washes in ddH2O, the membrane was immersed in transfer buffer for 15 minutes. A SDS-PAGE was put on the membrane, and wet paper was flanked them. The proteins were transferred to the PVDF membrane using a semi-dry transfer at 20 V for 30 minutes. • e) The band of the PVDF membrane was trimmed and was added by suitable amount of blocking buffer (5% skim milk in washing buffer) and then was shaken for 1 hour in room temperature to block non specific bindings. Then, the band was covered by a diluted 1° antibody overnight in 4° C. […]

[4] = system: Cathepsin K mRNA in RAW264.7 cells; assay: RT-PCR, RANKL-induced mRNA expression of Cathepsin K; details: for RANKL-induced mRNA expression level of Cathepsin K: RAW264.7 cells, 24 hours, CTL 100%, mean ± SEM
Excerpt: as §1

[5] = system: TRAP activity of RAW264.7 cells induced by RANKL; assay: TRAP activity assay; details: 10 ng/ml RANKL for 5 days, different concentrations, FIG. 4
Description: 10^3 cells were plated per well in 96-well plates. […] When the reaction fluid became yellow, 0.1 M, 100 μl/well NaOH was added to terminate the reaction, and OD405 was examined in 37° C. b) 3 μl/well supernatant was examined by Bio-Red DC Protein Assay to detect the protein concentration.

[6] = system: TRAP mRNA in RAW264.7 cells; assay: RT-PCR, RANKL-induced mRNA expression of TRAP; details: for RANKL-induced mRNA expression level of TRAP: RAW264.7 cells, 24 hours, CTL 100%, mean ± SEM
Excerpt: as §1

[7] = system: Fra-2 mRNA in RAW264.7 cells; assay: RT-PCR, RANKL-induced mRNA expression of Fra-2; details: for RANKL-induced mRNA expression level of Fra-2: RAW264.7 cells, 24 hours, CTL 100%, mean ± SEM
Excerpt: as §1

[8] = 10 ng/ml RANKL, summary of Table 1

Cn1c(=O)c2c(ncn2CCN2CCN(c3ccccc3Cl)CC2)n(C)c1=O [KMUP-1, 7-[2-[4-(2-Chlorophenyl)piperazin-1-yl]ethyl] theophylline] was tested, and the “phosphorylation of Akt induced by RANKL” value [1] was “can efficiently inhibit phosphorylation of Akt induced by RANKL”, the “effect on mRNA expression of MMP-9 induced by RANKL (in words)” value [2, 8] was “inhibits the mRNA expression” and the “RANKL-induced mRNA expression level of MMP-9” value ([2]; RANKL 10 ng/ml + KMUP-1 1 μM) was 1732.4 ± 168.9%. For the same compound, the “RANKL-induced mRNA expression level of MMP-9” value ([2]; RANKL 10 ng/ml + KMUP-1 2.5 μM) was 1619.9 ± 179.8%, the “RANKL-induced mRNA expression level of MMP-9” value ([2]; RANKL 10 ng/ml + KMUP-1 5 μM) was 1570.9 ± 159.3% ^b and the “RANKL-induced mRNA expression level of MMP-9” value ([2]; RANKL 10 ng/ml + KMUP-1 7.5 μM) was 1439.8 ± 188.8% ^b. The “RANKL-induced mRNA expression level of MMP-9” value ([2]; RANKL 10 ng/ml + KMUP-1 10 μM) was 1372.0 ± 175.6% ^b, the “expression of c-Fos induced by RANKL” value [3] was “can efficiently inhibit it” and the “effect on mRNA expression of Cathepsin K induced by RANKL (in words)” value [4, 8] was “not obviously inhibits”. The “RANKL-induced mRNA expression level of Cathepsin K” value ([4]; RANKL 10 ng/ml + KMUP-1 1 μM) was 304 ± 7.8%, the “RANKL-induced mRNA expression level of Cathepsin K” value ([4]; RANKL 10 ng/ml + KMUP-1 2.5 μM) was 305 ± 5.9% and the “RANKL-induced mRNA expression level of Cathepsin K” value ([4]; RANKL 10 ng/ml + KMUP-1 5 μM) was 312 ± 6.2%^. The “RANKL-induced mRNA expression level of Cathepsin K” value ([4]; RANKL 10 ng/ml + KMUP-1 7.5 μM) was 321.5 ± 10.2% ^, the “RANKL-induced mRNA expression level of Cathepsin K” value ([4]; RANKL 10 ng/ml + KMUP-1 10 μM) was 245 ± 8.5% ^b and the “TRAP activity induced by RANKL” value [5] was “can be inhibited, and the inhibiting effect is related to dose”. For the same compound, the “effect on mRNA expression of TRAP induced by RANKL (in words)” value [6, 8] was “inhibits the mRNA expression”, the “RANKL-induced mRNA expression level of TRAP” value ([6]; RANKL 10 ng/ml + KMUP-1 1 μM) was 422.4 ± 24.8% and the “RANKL-induced mRNA expression level of TRAP” value ([6]; RANKL 10 ng/ml + KMUP-1 2.5 μM) was 427.7 ± 39.3%. For the same compound, the “RANKL-induced mRNA expression level of TRAP” value ([6]; RANKL 10 ng/ml + KMUP-1 5 μM) was 359.9 ± 20.7% ^b, the “RANKL-induced mRNA expression level of TRAP” value ([6]; RANKL 10 ng/ml + KMUP-1 7.5 μM) was 293.8 ± 30.1% ^b and the “RANKL-induced mRNA expression level of TRAP” value ([6]; RANKL 10 ng/ml + KMUP-1 10 μM) was 259.3 ± 18.3% ^b. For the same compound, the “effect on mRNA expression of Fra-2 induced by RANKL (in words)” value [7, 8] was “not obviously inhibits”, the “RANKL-induced mRNA expression level of Fra-2” value ([7]; RANKL 10 ng/ml + KMUP-1 1 μM) was 428.3 ± 38.5% and the “RANKL-induced mRNA expression level of Fra-2” value ([7]; RANKL 10 ng/ml + KMUP-1 2.5 μM) was 490.5 ± 42.3%. The “RANKL-induced mRNA expression level of Fra-2” value ([7]; RANKL 10 ng/ml + KMUP-1 5 μM) was 488.2 ± 57.6% ^, the “RANKL-induced mRNA expression level of Fra-2” value ([7]; RANKL 10 ng/ml + KMUP-1 7.5 μM) was 474.5 ± 52.1% ^ and the “RANKL-induced mRNA expression level of Fra-2” value ([7]; RANKL 10 ng/ml + KMUP-1 10 μM) was 496.6 ± 44.1% ^.
